Like-named read-outs stand apart in the source and are kept apart here.
What was measured:
[1] = Bioactivation studies in rat liver S9 fraction; type: in vitro ADME; conditions: rat liver S9 1 mg/mL; for remaining at 1 h, 5 µM: Sprague-Dawley, rat, liver S9 fraction, read-out: SP-8356 (% Remaining at 60 min)
Procedure: SP-8356 was incubated with 1 mg/mL rat liver S9 fraction in 0.1 M potassium phosphate buffer (pH 7.4) in the absence and presence of GSH, AA, NADPH, UDPGA, PAPS and SAM. The final reaction mixture contained 5 µM SP-8356, 8 mM MgCl2, 25 µg/mL alamethicin and 1 mM cofactor in final volume of 160 µL. The reaction was initiated by adding a 10 mM cofactor solution prepared in 0.1 M potassium phosphate buffer (pH 7.4), following a 5 min preincubation of the incubation mixture at 37 °C. The final study groups were as follows: no cofactor (control), AA, NADPH, GSH, GSH + AA, GSH + NADPH and GSH + UDPGA + PAPS + SAM. The reaction was quenched at (0 and 60) min by adding 160 µL of ice-cold acetonitrile containing HSDH (1 µg/mL). Following a brief vortexing and sonication, the mixtures were centrifuged at 3,000 rpm at 4 °C for 20 min. The supernatant mixed with the same volume of deionized water on an Agilent 96-well plate was analyzed by Agilent 6530 Q-TOF LC-MS/MS system equipped with dual AJS ESI ion source and Agilent 1200 series HPLC system, as follows.
Chromatographic separation was performed on a Phenomenex Kinetex C18 column (50 mm × 2.1 mm, 2.6 µm) (USA) with 0.1 vol.% formic acid in deionized water (A) and 0.1 vol.% formic acid in acetonitrile (B) running at 0.45 mL/min in the following gradient elution: 2 vol.% B for the initial 2 min, linear gradient to 95 vol.% B for 1 min and maintaining 95 vol.% B for 5 min. The injection volume was 5 μL and the column temperature was set at 50 °C. The ion source and mass analyzer parameters of the mass spectrometer were the same as in Section 4.4. LC-MS chromatograms and mass spectra were extracted using Agilent MassHunter Qualitative Analysis software (version B.05.00) (Santa Clara, CA, USA).

[2] = In vivo metabolite identification, pooled rat plasma (Q-TOF LC-MS/MS); conditions: i.v. SP-8356 20 mg/kg
Procedure: (§1) Plasma samples from the i.v. administrations described in Section 4.2 and Section 4.3 were used in this study. Plasma samples pooled at each time point were subjected to sample preparation as described in Section 4.2. The prepared samples were analyzed by Agilent 6530 Q-TOF LC-MS/MS system equipped with dual AJS ESI ion source and Agilent 1200 series HPLC system as described below.
(§2) Chromatographic separation was achieved on an Agilent Eclipse C18 column (2.1 mm × 100 mm, 3.5 µm) by a gradient elution with a mobile phase consisting of 0.1 vol.% formic acid in water (A) and 0.1 vol.% formic acid in acetonitrile (B) at 50 °C: starting with 5 vol.% B for 2 min, ramping to 95 vol.% B over 1 min, maintaining for 3 min. The mobile phase flow rate was kept at 0.45 mL/min throughout the run. The sample injection volume was 5 µL. Ion source parameters were set as follows: capillary voltage, 3500 V; drying gas, 12 L/min and 300 °C; nebulizer gas, 30 psi; sheath gas, 12 L/min and 300 °C. Mass spectra were acquired in negative ion auto MS/MS mode (F, 135 V; CE, 25 eV) with full scan range of m/z (100–1000) and mass scan rate of 8 spectra/s. Metabolites were identified using Agilent MassHunter Metabolite ID software (version B.04.00) (Santa Clara, CA, USA). Chromatograms and mass spectra of the parent and identified metabolites were extracted using Agilent MassHunter Qualitative Analysis software (version B.05.00) (Santa Clara, CA, USA).

[3] = Metabolic stability in rat liver S9 fraction; type: in vitro ADME
Procedure: (§3) The metabolic stability of SP-8356 was investigated using rat, dog and human liver S9 fractions fortified with cofactors for major drug metabolism. The final reaction mixture contained 1 mg/mL rat, dog or human liver S9 fraction, 1 mM cofactors (NADPH, UDPGA, PAPS, SAM and GSH), 2 mM MgCl2, 25 µg/mL alamethicin and 1 µM SP-8356 in final volume of 200 µL. The metabolic reactions were initiated by adding 10 mM cofactor solution to reaction mixtures preincubated for 5 min at 37 °C. The reactions were terminated at (0, 5, 15, 30 and 60) min by the addition of 200 µL ice-cold acetonitrile containing HSDH (1 µg/mL). The subsequent sample preparation and analytical methods were the same as those described in Section 4.5.
(§4) The degradation t1/2 of SP-8356 was calculated using the following Equation:(1) t1/2=0.693/k, where, k was the first-order rate constant calculated by one phase decay nonlinear regression using GraphPad Prism™ 7 (GraphPad Software, La Jolla, CA, USA). CLint was calculated using the following Equation:(2) CLint=k/fu,S9· mL incubation/mg liver S9· mg S9/g liver·g liver/kg body wt.
(§5) The scaling factors were (136, 120.7 and 120.7) mg S9 protein/g liver and (40, 32 and 26) g liver/kg body weight for rats, dogs and humans, respectively. For simplicity, the fraction unbound in S9 incubation (fu, S9) was assumed to be one. CLH was predicted using the hepatic well-stirred model, as follows:(3) CLH=QH·fu·CLint/QH+fu·CLint, where, QH was the hepatic blood flow of (55, 30 and 20) mL/min/kg for rats, dogs and humans, respectively. The fraction unbound (fu) was assumed to be one. EH was calculated using the following Equation:(4) EH=CLH/QH.

[4] = In vivo metabolite identification, pooled dog plasma (Q-TOF LC-MS/MS); conditions: i.v. SP-8356 50 mg/kg
Procedure: as §1, §2

[5] = Pharmacokinetic studies in rats (single i.v. and p.o. dose); type: in vivo; conditions: plasma
[6] = Metabolic stability in human liver S9 fraction; type: in vitro ADME; conditions: for t1/2 / half-life at 1 µM: 1 μM
Procedure: as §3, §4, §5

[7] = % versus total AUClast of parent and all detected metabolites
[8] = AR = peak area ratio versus internal standard

In the case of `COc1cc(/C=C/C2=CC(=O)[C@H]3C[C@@H]2C3(C)C)cc(O)c1O` [SP-8356, (1S,5R)-4-((E)-3,4-dihydroxy-5-methoxystryryl)-6,6-dimethylbicylco[3.1.1]hept-3-en-2-one], the remaining at 1 h, 5 µM ([1]; pH 7.4, cofactors: AA (1 mM)) is reported as 106 ± 2.6%, the remaining at 1 h, 5 µM ([1]; pH 7.4, cofactors: GSH (1 mM)) is reported as 29.1 ± 6.9% and the remaining at 1 h, 5 µM ([1]; pH 7.4, cofactors: GSH + AA) is reported as 92.1 ± 1.7%. It also gave a remaining at 1 h, 5 µM ([1]; pH 7.4, cofactors: GSH + NADPH) of 18 ± 1.9%, a remaining at 1 h, 5 µM ([1]; pH 7.4, cofactors: GSH + UDPGA + PAPS + SAM) of 1.3 ± 0.2% and a remaining at 1 h, 5 µM ([1]; pH 7.4, cofactors: NADPH (1 mM)) of 21.6 ± 2%. The remaining at 1 h, 5 µM ([1]; pH 7.4, cofactors: None) was roughly 20%, the “SP-8356 (% Remaining at 60 min)” value ([1]; cofactors: None, 5 μM) was 20.3 ± 1.9% and the “AUClast (%)” value [2, 7] was 26.48%. The “AUClast (AR∙h) × 10^2” value [2, 8] was 36.22 (AR∙h) × 10^2, the CLint scaled at 1 µM ([3]; Sprague-Dawley, liver S9 fraction, rat liver S9, +Cofactors) was 2900 mL/min/kg and the EH ([3]; rat, +Cofactors, EH = CLH/QH) was 0.98. For the same compound, the CLH ([3]; rat, +Cofactors, predicted by well-stirred model) was 54.0 mL/min/kg, the “AUClast (%)” value [4, 7] was 17.66% and the “AUClast (AR∙h) × 10^2” value [4, 8] was 698.5 (AR∙h) × 10^2. The Vd ([5]; male, SD (rat), Beagle (dog), iv, range over rats and dogs, read-out: mean volumes of distribution during terminal phase (Vz) and at steady state (Vss)) was 1.3 to 1.9 L/kg, the AUC(0-inf) ([5]; male, SD, iv, rat, 20 mg/kg) was 1030 ± 314 ng·h/mL and the AUC(0-t) ([5]; male, SD, iv, rat, 20 mg/kg) was 981 ± 314 ng·h/mL. For the same compound, the clearance ([5]; male, SD, iv, rat, 20 mg/kg) was 350 mL/min/kg, the half-life ([5]; male, SD, rat, iv, 20 mg/kg) was less than 6 min and the Vd ([5]; male, SD, rat, iv, 20 mg/kg, read-out: Vss) was 1.6 ± 0.5 L/kg. It also gave a Vd ([5]; male, SD, rat, iv, 20 mg/kg, read-out: Vz) of 1.9 ± 0.6 L/kg, a t1/2 ([5]; rat, 20 mg/kg) of 4.2 ± 1.2 min and a t1/2 ([6]; human liver S9, +Cofactors (NADPH, UDPGA, PAPS, SAM, GSH)) of 2.1 min. For the same compound, the t1/2 ([6]; human liver S9, −Cofactors) was 24.1 min, the CLH ([6]; human, +Cofactors, predicted by well-stirred model) was 19.6 mL/min/kg and the half-life at 1 µM ([6]; human, liver S9 fraction, human liver S9, +Cofactors (NADPH, UDPGA, PAPS, SAM, GSH)) was less than 3 min. The half-life at 1 µM ([6]; human, liver S9 fraction, human liver S9, −Cofactors) was less than 30 min and the CLint scaled at 1 µM ([6]; liver S9 fraction, human liver S9, +Cofactors) was 1040 mL/min/kg.
